In patent US20250346574A1, “PYRIDINYL SUBSTITUTED OXOISOINDOLINE COMPOUNDS FOR THE TREATMENT OF CANCER” (Bristol-Myers Squibb Company, priority 2021, published 2025):

Molecular target: Helios (Homo sapiens, UniProt Q96SW2+Q9UKS7)
Assay: Helios Human T Regulatory Cells Degradation Assay
Format: cell-based
Design: fluorescently labelled antibodies against Helios in 1× Permeabilization buffer; endogenous in cells; host or cells: cryopreserved human T regulatory cells
Details: cryopreserved human T regulatory cells, incubated 20 hours, Helios-APC antibody staining, flow cytometry; read-out: hTreg Helios DC50
Procedure: Cryopreserved human T regulatory cells were thawed in RPMI+10% FBS+20 ng/mL IL-2. After being spun at 1200 rpm for 5 mins, the cells were resuspended in RPMI+10% FBS+20 ng/mL and rested at 37° C. with 5% CO2 for 3 hours. […] Cell cultures were incubated for 20 hours at 37° C. and 5% CO2. In order to facilitate analysis, cell cultures were spun down at 1200 rpm for 5 minutes and the supernatant was discarded using an EL406 plate washer. After washing three times with 70 μL PBS, cell pellets were resuspended in 50 μL of near IR viability staining solution (Life Technologies, Cat #L34975) and incubated for 30 minutes on ice protected from light. Cells were washed three times with 70 μL PBS+0.5% BSA using an EL406 plate washer. […] Subsequently, 30 μL of 1× Permeabilization buffer was added prior to centrifuging the cells and discarding the supernatant. Stained cells were resuspended in 30 μL of flow cytometry staining buffer (PBS+0.5% BSA) and analyzed using an Intellicyt Ique Plus flow cytometer.

Chain of Helios (Q9UKS7 whole entry): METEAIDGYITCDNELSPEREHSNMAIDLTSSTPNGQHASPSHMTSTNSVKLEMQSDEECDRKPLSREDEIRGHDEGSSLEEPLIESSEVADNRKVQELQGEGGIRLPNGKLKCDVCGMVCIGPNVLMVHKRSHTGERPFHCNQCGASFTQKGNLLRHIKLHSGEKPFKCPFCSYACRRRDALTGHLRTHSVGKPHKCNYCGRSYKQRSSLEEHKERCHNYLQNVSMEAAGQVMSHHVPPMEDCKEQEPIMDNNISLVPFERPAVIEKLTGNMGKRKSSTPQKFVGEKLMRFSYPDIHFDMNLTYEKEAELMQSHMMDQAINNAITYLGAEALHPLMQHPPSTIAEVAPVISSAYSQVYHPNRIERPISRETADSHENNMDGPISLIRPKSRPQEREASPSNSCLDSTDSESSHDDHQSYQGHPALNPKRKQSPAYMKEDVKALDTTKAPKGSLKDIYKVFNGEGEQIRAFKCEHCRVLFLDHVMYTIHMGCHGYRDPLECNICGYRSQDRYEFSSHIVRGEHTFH
Chain of Helios (Q96SW2 whole entry): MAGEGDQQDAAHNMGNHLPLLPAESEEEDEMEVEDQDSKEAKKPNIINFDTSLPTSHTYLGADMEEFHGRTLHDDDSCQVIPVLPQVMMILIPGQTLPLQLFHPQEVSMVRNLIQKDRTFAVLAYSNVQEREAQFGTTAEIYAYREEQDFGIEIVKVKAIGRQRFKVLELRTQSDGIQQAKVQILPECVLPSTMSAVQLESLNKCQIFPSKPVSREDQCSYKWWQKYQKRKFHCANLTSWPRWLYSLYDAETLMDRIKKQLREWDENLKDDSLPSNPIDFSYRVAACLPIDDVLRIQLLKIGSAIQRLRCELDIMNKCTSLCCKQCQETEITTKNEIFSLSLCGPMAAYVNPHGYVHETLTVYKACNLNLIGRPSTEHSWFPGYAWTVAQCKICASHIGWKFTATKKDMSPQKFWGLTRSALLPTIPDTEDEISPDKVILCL
Chain of Helios (Q16531 whole entry partner): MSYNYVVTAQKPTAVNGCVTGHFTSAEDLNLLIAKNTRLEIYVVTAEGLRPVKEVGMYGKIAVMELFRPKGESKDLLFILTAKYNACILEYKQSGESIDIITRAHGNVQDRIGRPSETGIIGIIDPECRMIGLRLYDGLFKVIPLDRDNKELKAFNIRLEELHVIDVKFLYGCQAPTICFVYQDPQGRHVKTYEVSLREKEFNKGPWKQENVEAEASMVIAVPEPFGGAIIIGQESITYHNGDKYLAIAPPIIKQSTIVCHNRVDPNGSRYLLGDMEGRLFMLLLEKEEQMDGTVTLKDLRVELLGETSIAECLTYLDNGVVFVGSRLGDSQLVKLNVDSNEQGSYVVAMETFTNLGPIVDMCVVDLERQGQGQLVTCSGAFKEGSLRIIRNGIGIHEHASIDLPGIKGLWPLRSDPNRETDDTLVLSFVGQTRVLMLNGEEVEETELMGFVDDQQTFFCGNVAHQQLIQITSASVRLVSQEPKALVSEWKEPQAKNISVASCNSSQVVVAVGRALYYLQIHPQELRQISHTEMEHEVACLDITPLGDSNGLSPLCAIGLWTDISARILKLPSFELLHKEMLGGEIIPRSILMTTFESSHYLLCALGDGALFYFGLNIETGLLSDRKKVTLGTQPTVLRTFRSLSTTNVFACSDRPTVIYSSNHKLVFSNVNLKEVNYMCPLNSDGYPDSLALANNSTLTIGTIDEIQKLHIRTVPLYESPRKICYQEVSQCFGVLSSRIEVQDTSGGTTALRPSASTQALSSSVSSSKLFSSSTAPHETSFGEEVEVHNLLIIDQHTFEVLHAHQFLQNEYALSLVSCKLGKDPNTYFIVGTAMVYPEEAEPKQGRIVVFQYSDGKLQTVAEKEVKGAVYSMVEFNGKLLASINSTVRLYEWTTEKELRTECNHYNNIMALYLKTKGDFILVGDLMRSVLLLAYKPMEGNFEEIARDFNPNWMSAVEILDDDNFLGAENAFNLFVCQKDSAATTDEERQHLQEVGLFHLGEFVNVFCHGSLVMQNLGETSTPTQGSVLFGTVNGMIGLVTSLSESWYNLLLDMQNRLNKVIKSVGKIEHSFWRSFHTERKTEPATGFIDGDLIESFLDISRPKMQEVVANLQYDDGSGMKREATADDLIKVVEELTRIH

Row | DC50 | SMILES
1 | 10.9 nM | O=C1CC[C@H](N2Cc3cc(-c4nccc(CN5CC6CCCC6C5)c4F)ccc3C2=O)C(=O)N1 (stereo partly drawn) [Example 155, (3S)-3-(5-(3-fluoro-4-((hexahydrocyclopenta[c]pyrrol-2(1H)-yl)methyl)pyridin-2-yl)-1-oxoisoindolin-2-yl)piperidine-2,6-dione]
2 | ≥ 10000 nM | CC(C)(C)OC(=O)N1C[C@H]2CN(Cc3ccnc(-c4ccc5c(c4)CN([C@H]4CCC(=O)NC4=O)C5=O)c3F)C[C@H]2C1 [Example 156, tert-butyl (3aR,6aS)-5-((2-(2-((S)-2,6-dioxopiperidin-3-yl)-1-oxoisoindolin-5-yl)-3-fluoropyridin-4-yl)methyl)hexahydropyrrolo[3,4-c]pyrrole-2(1H)-carboxylate]
3 | 2.5 nM | O=C1CCC(N2Cc3cc(-c4cc(CN5CC6(CCCCC6)C5)ccn4)ccc3C2=O)C(=O)N1 (stereo not drawn) [Example 157, 3-(5-(4-((2-azaspiro[3.5]nonan-2-yl)methyl)pyridin-2-yl)-1-oxoisoindolin-2-yl) piperidine-2,6-dione]
4 | 3.2 nM | O=C1CC[C@H](N2Cc3cc(-c4cc(CN5CC6(CCOCC6)C5)ccn4)ccc3C2=O)C(=O)N1 [Example 158, (S)-3-(5-(4-((7-oxa-2-azaspiro[3.5]nonan-2-yl)methyl)pyridin-2-yl)-1-oxoisoindolin-2-yl)piperidine-2,6-dione]
5 | 14.6 nM | O=C1CCC(N2Cc3cc(-c4cc(CN5CC(CNC(=O)c6ccccc6)C5)ccn4)ccc3C2=O)C(=O)N1 (stereo not drawn) [Example 159, N-((1-((2-(2-(2,6-dioxopiperidin-3-yl)-1-oxoisoindolin-5-yl)pyridin-4-yl)methyl)azetidin-3-yl)methyl)benzamide]
6 | 61.9 nM | CN(C(=O)c1ccccc1)C1CN(Cc2ccnc(-c3ccc4c(c3)CN([C@H]3CCC(=O)NC3=O)C4=O)c2)C1 [Example 160, (S)—N-(1-((2-(2-(2,6-dioxopiperidin-3-yl)-1-oxoisoindolin-5-yl)pyridin-4-yl)methyl)azetidin-3-yl)-N-methylbenzamide]
7 | 223 nM | CN(C1CN(Cc2ccnc(-c3ccc4c(c3)CN([C@H]3CCC(=O)NC3=O)C4=O)c2)C1)S(C)(=O)=O [Example 161, (S)—N-(1-((2-(2-(2,6-dioxopiperidin-3-yl)-1-oxoisoindolin-5-yl)pyridin-4-yl)methyl)azetidin-3-yl)-N-methylmethanesulfonamide]
8 | 28.7 nM | CN(C1CN(Cc2ccnc(-c3ccc4c(c3)CN([C@H]3CCC(=O)NC3=O)C4=O)c2)C1)S(=O)(=O)c1ccccc1 [Example 162, (S)—N-(1-((2-(2-(2,6-dioxopiperidin-3-yl)-1-oxoisoindolin-5-yl)pyridin-4-yl)methyl)azetidin-3-yl)-N-methylbenzenesulfonamide]
9 | 15.9 nM | CN(CC1CN(Cc2ccnc(-c3ccc4c(c3)CN([C@H]3CCC(=O)NC3=O)C4=O)c2)C1)C(=O)c1ccccc1 [Example 164, (S)—N-((1-((2-(2-(2,6-dioxopiperidin-3-yl)-1-oxoisoindolin-5-yl)pyridin-4-yl)methyl)azetidin-3-yl)methyl)-N-methylbenzamide]
10 | 178 nM | O=C1CCC(N2Cc3cc(-c4cc(Cn5cccn5)ccn4)ccc3C2=O)C(=O)N1 (stereo not drawn) [Example 165, 3-(5-(4-((1H-pyrazol-1-yl)methyl)pyridin-2-yl)-1-oxoisoindolin-2-yl)piperidine-2,6-dione]
11 | ≥ 10000 nM | Cc1cnn(Cc2ccnc(-c3ccc4c(c3)CN([C@H]3CCC(=O)NC3=O)C4=O)c2)c1 [Example 166, (S)-3-(5-(4-((4-methyl-1H-pyrazol-1-yl)methyl)pyridin-2-yl)-1-oxoisoindolin-2-yl)piperidine-2,6-dione]
12 | 1 nM | Cc1cnc(-c2ccc3c(c2)CN(C2CCC(=O)NC2=O)C3=O)cc1CN1CCC(C(C)(C)O)CC1 (stereo not drawn) [Example 167, 3-(5-(4-((4-(2-hydroxypropan-2-yl)piperidin-1-yl)methyl)-5-methylpyridin-2-yl)-1-oxoisoindolin-2-yl)piperidine-2,6-dione]
